What is called IC50 is the point on the concentration scale where inhibition reaches its midpoint.

In this assay the target is T1, Prostaglandin D2 receptor 2 (Homo sapiens, UniProt Q9Y5Y4).
T1 sequence (Q9Y5Y4 whole entry): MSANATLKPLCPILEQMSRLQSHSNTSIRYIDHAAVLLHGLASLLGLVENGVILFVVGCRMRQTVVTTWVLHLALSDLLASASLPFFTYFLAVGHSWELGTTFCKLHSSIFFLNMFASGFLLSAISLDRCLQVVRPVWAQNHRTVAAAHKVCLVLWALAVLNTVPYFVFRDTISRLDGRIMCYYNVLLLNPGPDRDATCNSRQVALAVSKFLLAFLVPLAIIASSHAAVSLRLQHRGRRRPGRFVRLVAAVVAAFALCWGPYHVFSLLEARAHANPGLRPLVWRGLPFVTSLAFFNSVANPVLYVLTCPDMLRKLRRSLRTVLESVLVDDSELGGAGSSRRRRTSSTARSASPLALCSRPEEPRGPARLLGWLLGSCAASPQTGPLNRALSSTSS
Briefly: Biological Activity Assay: Experimental Method:PathHunter CHO-K1 CRTH2 β-arrestin cells (DiscoverX, catalogue number 93-0291C2) grew under standard conditions, and were inoculated into a white-wall 384-well microplate at a density of 5,000 cells/well. 20 μL of Cell Plating Reagent 1 was used in each well. Before the test, the cells were incubated overnight at 37° C./5% CO2. A test compound was serially diluted in DMSO with a dilution factor of 3-fold to give 8 concentrations of the test compound. Shortly before the test, the serially diluted test compound was further diluted with the test buffer to 5 times of the test concentration. 5 μL of the further diluted test compound was added to the cells, and the cells were incubated for 30 min at 37° C. The concentration of the solvent was 1%. 5 μL of 6×EC80 agonist (PGD2) buffer was added to the cells, and the cells were incubated for 90 min at 37° C. Measured signals were generated by one-time addition of 15 μL (50% v/v) of PathHunter detection mixture reagent and subsequent one-hour incubation. The microplate was read through the chemiluminescent signals of PerkinElmer Envision™ reader. Biological activity of the test compound was analyzed by CBIS data analysis suite (ChemInnovation, CA), and was denoted as IC50 value.

As for `Cc1c(C2=CS(=O)(=O)c3cc(C(F)(F)F)ccc32)c2cc(F)ccc2n1CC(=O)O`, the IC50 is less than 100 nM.

Turning to `CC1=Nc2cc(Cc3c(C)n(CC(=O)O)c4ccc(F)cc34)ccc2S(=O)(=O)N1`, the IC50 is less than 100 nM.

In the case of `Cc1c(Cc2ccc3c(c2)CCS3(=O)=O)c2ccc(C(F)(F)F)cc2n1CC(=O)O`, the IC50 is greater than 1000 nM.

As to `Cc1c(C2=CS(=O)(=O)c3ccccc32)c2cc(F)ccc2n1CC(=O)O`, the IC50 is less than 100 nM.

`O=C(O)Cn1c(-c2ccccc2)c(Cc2ccc3c(c2)CCS3(=O)=O)c2ccccc21`: the IC50 is greater than 1000 nM.

For `Cc1c(Cc2ccc3c(c2)C(F)(F)CN(C)S3(=O)=O)c2cc(F)ccc2n1CC(=O)O`, the IC50 was less than 100 nM.

Turning to `Cc1c(Cc2ccc3c(c2)C(C)(C)CS3(=O)=O)c2cc(F)ccc2n1CC(=O)O`, the IC50 is less than 100 nM.

As to `Cc1c(C2=CS(=O)(=O)c3cc(Cl)ccc32)c2cc(F)ccc2n1CC(=O)O`, the half-inhibitory concentration (IC50) was less than 100 nM.

With `Cc1c(Cc2ccc3c(c2)C(F)(F)CCS3(=O)=O)c2cc(F)ccc2n1CC(=O)O`, the IC50 was less than 100 nM.

Regarding `Cc1c(Cc2ccc3c(c2)CNS3(=O)=O)c2cc(F)ccc2n1CC(=O)O`, the IC50 is less than 100 nM.

Consider `Cc1c(C2=CS(=O)(=O)c3ccccc32)c2ccc(Cl)cc2n1CC(=O)O`, for which the half-maximal inhibitory concentration (IC50) is less than 100 nM.

As for `Cc1c(Cc2ccc3c(c2)CCS3(=O)=O)c2cc(NC(=O)C3CC3)ccc2n1CC(=O)O`, the IC50 is greater than 1000 nM.

For `Cc1c(C2=CCS(=O)(=O)c3ccccc32)c2cc(F)ccc2n1CC(=O)O`, the IC50 was less than 100 nM.

Regarding `Cc1c(Cc2ccc3c(c2)C(F)(F)CCS3(=O)=O)c2cccnc2n1CC(=O)O`, the IC50 was greater than 1000 nM.

For the molecule `Cc1c(C2=CS(=O)(=O)c3cc(-c4cc(F)cc(Cl)c4)ccc32)c2cc(F)ccc2n1CC(=O)O`, the half-inhibitory concentration (IC50) was less than 100 nM.

Take `Cc1c(Cc2ccc3c(c2)C(F)(F)CCS3(=O)=O)c2cc(F)ccc2n1Cc1nn[nH]n1`: the IC50 is greater than 1000 nM.

On to `Cc1c(Cc2ccc3c(c2)N(C)CN(C)S3(=O)=O)c2cc(F)ccc2n1CC(=O)O`, for which the IC50 is less than 100 nM.

`Cc1c(Cc2ccc3c(c2)N=CN(C)S3(=O)=O)c2cc(F)ccc2n1CC(=O)O`: the IC50 is less than 100 nM.

`Cc1c(Cc2cc3c(cc2C(F)(F)F)S(=O)(=O)N(C)CN3C)c2cc(F)ccc2n1CC(=O)O`: the IC50 is less than 100 nM.

As for `Cc1c(C2=CS(=O)(=O)c3ccc(F)cc32)c2cc(F)ccc2n1CC(=O)O`, the IC50 is greater than 1000 nM.

Regarding `Cc1c(Cc2ccc3c(c2)C(F)(F)CCS3(=O)=O)c2cnccc2n1CC(=O)O`, the IC50 was greater than 1000 nM.

The record behind these values is ChEMBL document CHEMBL5728026, “Indole derivative used as CRTH2 inhibitor” (2020).
